Results on two molecules are retold here after patent publication US20100273876A1, “ANTIBACTERIAL FORMULATION COMPRISING A DIALKYL SULPHOSUCCINATE AND A CARBANILIDE ANTIBACTERIAL AGENT” (priority 2007, published 2010).

Test [1] deals with Por. gingivalis NCTC 11834. The test is described as follows: MIC assay, liquid medium. The test is classed as cell-based, Porphyromonas gingivalis. The procedure: The P. gingivalis strains were cultured and maintained on Wilkins-Chalgren Anaerobe Medium (agar and broth) at pH 7.0; all cultures were incubated anaerobically at 37° C. for 5-7 days.
This is a standard international method for quantitatively assessing the antimicrobial activity of a compound in a liquid medium. The method used a sterile 96-well microtitre plate, capable of holding about 200 μl of liquid per well. The wells contained liquid culture medium and ranges of decreasing concentrations of the relevant test compound in doubling dilutions (eg, 1000, 500, 250, 125 . . . μg/ml, etc. down to 0.49 μg/ml). The culture media were as described above.
The wells were inoculated with a liquid suspension of freshly grown micro-organism and incubated under the conditions described above. After incubation, the microtitre plate was examined visually (with the aid of a light box) for cloudiness in each well, which would indicate microbial growth. The MIC value was recorded as the lowest concentration of test compound required to inhibit microbial growth, ie, the lowest concentration for which the liquid in the well remained clear.
The assays included both negative (culture medium with no micro-organisms) and positive (culture medium plus diluting solvent plus micro-organism) controls.

Test [2] has as its system S. aureus ATCC 29213. The test is described as follows: (S)DDA disc diffusion. The test is classed as cell-based, Staphylococcus aureus. As to conditions: 200 μg per disc. The procedure:
(§1) A sterile paper disc was impregnated with a sample of the test compound in a suitable solvent and 30 minutes allowed for the solvents to evaporate (where possible). The disc was then placed on an agar plate onto which the test micro-organism had been inoculated. The plate was then incubated under the conditions described above, following which it was examined visually for signs of microbial growth. If the test compound had antimicrobial activity, a circular zone of no growth would be obtained around the disc. The diameter of this zone of “inhibition” was measured using a ProtoCOL™ automated zone sizer (Synbiosis, Cambridge, UK). In general, a greater diameter and/or area of the zone of inhibition indicates a greater antimicrobial activity in the relevant test compound, although other factors such as test compound mobility through the agar gel may also influence the result.
(§2) Two test a compounds A and B were placed on a single paper disc and the above described DDA procedure repeated. An increase in diameter of the zone of inhibition, compared to the greater of the zone diameters for the two compounds individually, was taken to indicate potential antimicrobial synergy. In practical terms, an increase of greater than 5 mm could be treated as significant.
(§3) The activities of DOSS and TCC against S. aureus ATCC 29213 and EMRSA 15 were determined using (S)DDAs as described above. 200 μg of the DOSS and/or the TCC were loaded onto each disc. All the experiments were conducted in triplicate.

Test [3] has as its system EMRSA 15. Nature of the test: (S)DDA disc diffusion. In kind it is cell-based, Staphylococcus aureus. To be noted: 200 μg per disc. The procedure: as §1, §2, §3
For orientation: In agar diffusion tests the substance spreads into inoculated agar from a disc or well.

The test system of test [4] is B. cereus ATCC 11778. Nature of the test: (S)DDA disc diffusion. To be noted: 200 μg per disc. In kind it is cell-based, Bacillus cereus. The procedure: as §1
(§4) Two test a compounds A and B were placed on a single paper disc and the above described DDA procedure repeated. […]
(§5) The activities of DOSS and TCC were determined, using (S)DDAs, against a panel of further test micro-organisms, namely B. cereus ATCC 11778, Bact. fragilis ATCC 25285, Clost. difficile […] and E. faecalis ATCC 29212. […]

In test [5] the test system is Bact. fragilis ATCC 25285. The test is described as follows: (S)DDA disc diffusion. To be noted: 200 μg per disc. The test is classed as cell-based, Bacteroides fragilis. The procedure:
as §1, §4, §5

For test [6], the system named is C. striatum NCTC 764. The test is described as follows: MBC assay. In kind it is cell-based, Corynebacterium striatum. The procedure: Several Corynebacterium test species were also used in this study, namely C. mucifaciens ATCC 700355, C. striatum NCTC 764, C. xerosis NCTC 11861 and C. jeikeium NCTC 11915. These Gram-positive pathogens are closely related to organisms (aerobic diphtheroids of the genus Corynebacterium) that cause body odour. C. mucifaciens and C. striatum were cultured and maintained on Mueller-Hinton Medium (agar and broth) and were incubated aerobically at 37° C. for 24 hours. C. xerosis and C. jeikeium were cultured and maintained on Mueller-Hinton Medium containing 5% (v/v) lysed horse blood (agar and broth) and were incubated aerobically at 37° C. for 72 hours. This assay, normally carried out after an MIC assay, determines the rnininiurn concentration of a compound that is lethal to the micro-organism being tested. […] These samples were then individually sub-cultured on antibiotic-free agar medium, under the incubation conditions described above. Following incubation they were examined visually for microbial growth.

Test [7] concerns P. acnes PRP-046. Nature of the test: (S)DDA disc diffusion. The test is classed as cell-based, Propionibacterium acnes. The procedure:
(§6) The propionibacteria were cultured and maintained on Wilkins-Chalgren Anaerobe Medium (agar and broth) at pH 6.0; all cultures were incubated anaerobically at 37° C. for 72 hours.
as §1, §2
(§7) Both the DDA and the SDDA test may be carried out using an agar gel supplemented with lipid and/or salt to simulate some of the major components present in human skin and to assess whether these substances might reduce the antimicrobial activity observed for the test compound. Performance under these conditions can provide a more reliable indication of activity on topical application. The supplements used in Examples 1, 11, 12 and 13 below were lipid (either Tween™ 80 at 1% v/v (Example 1) or triolein at 1% v/v (Examples 11, 12 and 13) and sodium chloride (100 mM).

Test [8] has as its system P. acnes PRP-008. The test is described as follows: (S)DDA disc diffusion. The test is classed as cell-based, Propionibacterium acnes. The procedure: as §6, §1, §2, §7
The test system of test [9] is P. acnes PRP-023. Nature of the test: (S)DDA disc diffusion. The test is classed as cell-based, Propionibacterium acnes. The procedure:
as §6, §1, §2, §7

Test [10] has as its system P. acnes NCTC 737. Nature of the test: Disc diffusion / synergy disc diffusion assay ((S)DDA). In kind it is cell-based, Propionibacterium acnes. As to conditions: for (S)DDA: diluted 1:2 with placebo, 10 μl per disc; for SDDA with DOSS: 200 μg TCC + 50 μg DOSS on one disc. The procedure: as §6, §1, §2, §7
Where [11] appears, read: P. acnes PRP-046 (resistance None), 200 μg TCC or 50 μg DOSS per disc.
Setting [12] is: P. acnes PRP-008 (Clin), 200 μg TCC or 50 μg DOSS per disc.
The mark [13] stands for this setting: P. acnes PRP-023 (MLSK), 200 μg TCC or 50 μg DOSS per disc.
The mark [14] stands for this setting: supplemented with salt (sodium chloride 100 mM) & lipid (Tween 80 1% v/v), 50 μg DOSS or 200 μg TCC per disc.
Setting [15] is: unsupplemented, 50 μg DOSS or 200 μg TCC per disc.
Setting [16] is: unsupplemented, with respect to the TCC.

A word on the MIC: it is the smallest concentration in the dilution series that meets the test's criterion for growth inhibition. The low end stands for greater potency, the high end for weaker potency. As a reminder, the MBC is the lowest tested concentration that kills the bacteria rather than only halting them. High values mean less potent killing, low ones more potent killing. In the case of dioctyl sodium sulphosuccinate [DOSS], the minimal inhibitory concentration (MIC) in test [1] was less than 0.49 µg/mL. In addition, the DDA came to 12.22 mm in test [2]; 12.42 mm in test [3]; 18.10 mm in [4]; 19.74 mm in test [5]; 25.08 mm in test [7] (setting [11]); 44.51 mm in test [7] (P. acnes PRP-046, 200 μg per disc). Besides, the DDA in test [8] (setting [12]) amounted to 24.87 mm; in test [8] (P. acnes PRP-008, 200 μg per disc), 48.25 mm; in test [9] (setting [13]) it was 26.41 mm; in test [9] (P. acnes PRP-023, 200 μg per disc), 49.49 mm; in test [10] (200 μg per disc, pH 6.0, single replicates), 47.63 mm; in [10] (setting [14]) it was 0.00 mm. Also, the DDA in test [10] (setting [15]) is 11.81 mm. Further, the MBC in [6] turned out to be 62.5 µg/mL. Further, the MIC/MBC ratio in test [6] is reported as 1. Moreover, the “DDA + salt” value worked out at 47.00 mm in test [7] (P. acnes PRP-046, 200 μg per disc, sodium chloride 100 mM); 48.56 mm in test [8] (P. acnes PRP-008, 200 μg per disc, sodium chloride 100 mM); 47.32 mm in [9] (P. acnes PRP-023, 200 μg per disc, sodium chloride 100 mM); 45.14 mm in [10] (200 μg per disc, pH 6.0, sodium chloride 100 mM). The “DDA + lipid” value in test [7] (P. acnes PRP-046, 200 μg per disc, triolein 1% v/v) was determined as 41.09 mm; in test [8] (P. acnes PRP-008, 200 μg per disc, triolein 1% v/v) it was 43.58 mm; in [9] (P. acnes PRP-023, 200 μg per disc, triolein 1% v/v), 46.38 mm; in test [10] (200 μg per disc, pH 6.0, triolein 1% v/v), 47.32 mm. For the same molecule, the “(S)DDA” value in test [10] (2.5% w/w DOSS solution (Solutol HS 15/ethanol/water)) was determined as 0.00 mm; in test [10] (5% w/w DOSS solution) it was 31.88 mm; in [10] (7.5% w/w DOSS solution), 40.52 mm.
With `O=C(Nc1ccc(Cl)cc1)Nc1ccc(Cl)c(Cl)c1` [TCC, N-(4-chlorophenyl)-N′-(3,4-dichlorophenyl) urea], the DDA in test [2] was 12.84 mm; in [3] it was 12.42 mm; in test [4], 12.96 mm; in [5], 14.71 mm; in test [7] (setting [11]), 20.25 mm; in [8] (setting [12]), 14.80 mm. Further, the DDA turned out to be 21.27 mm in test [9] (setting [13]), 15.69 mm in test [10] (200 μg of each test compound per disc (Example 2)), 0.00 mm in [10] (setting [14]) and 18.76 mm in [10] (setting [15]). Further, the “(S)DDA” value in [10] (0.1% w/w TCC solution) is 0.00 mm; in test [10] (0.2% w/w TCC solution) it was 0.00 mm; in test [10] (0.3% w/w TCC solution), 30.10 mm. Further, the results for the SDDA area increase result in test [10] (supplemented with salt & lipid) and in test [10] (setting [16]) were “∞” and 154.9%, respectively. Further, the values for the SDDA increase in test [10] (supplemented with salt & lipid) and in [10] (setting [16]) were 10.57 mm and 11.19 mm, respectively. The entries for the “SDDA with DOSS” value in test [10] (supplemented with salt & lipid) and in test [10] (unsupplemented) were 10.57 mm and 29.95 mm, respectively.
